Here are results for 12 molecules from patent US20080248511A1, “METHODS TO QUENCH LIGHT FROM OPTICAL REACTIONS” (priority 2007, published 2008).

Assay [1] concerns the target firefly luciferase (Photinus pyralis, UniProt P08659). The assay is described as follows: Non-detergent compound screen, firefly luciferase (Example 6). Format: biochemical. The conditions noted are these: 0.5% Tergitol NP-9, 0.03% BDDABr, read-out: Retained Firefly Luciferase Value (%); for remaining activity at 23 µM: inhibitor 23 μM; for remaining activity at 153 µM: inhibitor 153 μM; for remaining activity at 1000 µM: inhibitor 1000 μM; for remaining activity at 10 µM: inhibitor 10 μM; for remaining activity at 100 µM: inhibitor 100 μM. The method, then: (§1) Each compound was diluted into 200 mM MOPS pH 6.7, 4 μM MgSO4, 1 mM CDTA, 0.5% Tergitol NP-9, 0.05% Mazu-DF-204, 0.03% BDDABr, 30 mM thiourea, 1 mM bis-(2-mercaptoethylsulfone) (BMS), 4 μM CoA, and 1 μM 5-fluoroluciferin. Just prior to the luciferase reaction, 0.1% Prionex® (Pentapharm) and 2.9 μM coelenterazine-h (Promega) were added to each solution.
(§2) The firefly luciferase and Renilla luciferase enzymes were diluted as described in Examples 3 and 5. The luciferase reactions were initiated by adding 50 μl of the firefly luciferase and Renilla luciferase enzyme solution to 50 μl of reagent solution. The reactions were performed as described above. The retained Renilla and firefly luciferase-mediated luminescence and selectivity values for each inhibitor tested are listed in Table 6.

Assay [2] deals with T1, Renilla luciferase (Renilla reniformis, UniProt P27652).
T1 sequence (P27652 1-311): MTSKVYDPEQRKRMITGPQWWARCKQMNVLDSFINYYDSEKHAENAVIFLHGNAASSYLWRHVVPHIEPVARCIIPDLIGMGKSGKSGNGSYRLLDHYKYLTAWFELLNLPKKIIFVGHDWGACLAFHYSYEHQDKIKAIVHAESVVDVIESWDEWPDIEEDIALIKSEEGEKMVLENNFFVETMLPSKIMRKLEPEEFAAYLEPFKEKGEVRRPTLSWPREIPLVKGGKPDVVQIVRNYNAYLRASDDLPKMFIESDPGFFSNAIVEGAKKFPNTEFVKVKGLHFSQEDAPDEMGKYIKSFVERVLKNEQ
The assay can be described thus: Non-detergent compound screen, Renilla luciferase (Example 6). Format: biochemical. The conditions noted are these: for remaining activity at 23 µM / remaining activity at 153 µM / remaining activity at 1000 µM / remaining activity at 10 µM / remaining activity at 100 µM: 0.5% Tergitol NP-9, 0.03% BDDABr, read-out: Retained Renilla Luciferase Value (%). The method, then: as §1, §2

firefly luciferase, sequence (P08659 whole entry): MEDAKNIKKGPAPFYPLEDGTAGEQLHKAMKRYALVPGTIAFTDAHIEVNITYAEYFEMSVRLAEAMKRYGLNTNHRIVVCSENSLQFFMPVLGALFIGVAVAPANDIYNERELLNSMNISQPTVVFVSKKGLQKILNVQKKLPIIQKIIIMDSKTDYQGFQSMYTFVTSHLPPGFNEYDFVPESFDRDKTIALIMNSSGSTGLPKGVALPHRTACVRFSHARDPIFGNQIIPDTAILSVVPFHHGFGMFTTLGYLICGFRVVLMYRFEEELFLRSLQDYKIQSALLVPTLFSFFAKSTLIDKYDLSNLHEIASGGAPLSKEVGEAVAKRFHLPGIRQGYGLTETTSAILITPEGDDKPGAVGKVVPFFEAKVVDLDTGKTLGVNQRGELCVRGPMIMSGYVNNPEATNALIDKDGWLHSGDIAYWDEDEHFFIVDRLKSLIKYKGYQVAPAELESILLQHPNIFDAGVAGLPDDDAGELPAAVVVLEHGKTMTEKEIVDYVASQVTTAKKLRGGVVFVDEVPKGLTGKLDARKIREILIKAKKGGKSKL

For `COc1ccc(CNC(=O)COc2ccc3[nH]cc(CCN(C)C)c3c2)cc1` [Compound 3031, 2-(3-(2-(dimethylamino)ethyl)-1H-indol-5-yloxy)-N-(4-methoxybenzyl)acetamide], in assay [1], the remaining activity at 23 µM amounted to 96%, the remaining activity at 153 µM came to 89% and the remaining activity at 1000 µM was found to be 89%. For the same molecule, in assay [2], the “inhibitor of Renilla luciferase, grade in words” value (“inhibitor of Renilla luciferase” below) is on record as “suitable inhibitors of Renilla luciferase”. In assay [2] (inhibitor 23 μM), the “Selectivity Value” is listed as 1 and the remaining activity at 23 µM was 96%. In assay [2] (inhibitor 153 μM), the “Selectivity Value” came to 0.99 and the remaining activity at 153 µM came out at 90%. In assay [2] (inhibitor 1000 μM), the “Selectivity Value” worked out at 1.4 and the remaining activity at 1000 µM is 66.5%.

For `COc1ccc(CNC(=O)/C=C/c2ccc3[nH]cc(CN(C)C)c3c2)cc1` [Compound 3067, (E)-3-(3-((dimethylamino)methyl)-1H-indol-5-yl)-N-(4-methoxybenzyl)acrylamide], in assay [1], the remaining activity at 10 µM was found to be 100%, the remaining activity at 100 µM came to 99% and the remaining activity at 1000 µM was determined as 100%. For the same molecule, in assay [2], the “inhibitor of Renilla luciferase” value was “excellent inhibitors of Renilla luciferase”. Moreover, in assay [2] (inhibitor 10 μM), the “Selectivity Value” worked out at 1.3 and the remaining activity at 10 µM is 79%. In assay [2] (inhibitor 100 μM), the “Selectivity Value” amounted to 2.9 and the remaining activity at 100 µM was determined as 34%. In addition, in assay [2] (inhibitor 1000 μM), the “Selectivity Value” amounted to 14.3 and the remaining activity at 1000 µM is 7%.

With `COc1ccc(CNC(=O)/C(C#N)=C/CCCCCCCBr)cc1` [Compound 3059, (E)-10-bromo-2-cyano-N-(4-methoxybenzyl)dec-2-enamide], in assay [1], the remaining activity at 23 µM is 101%, the remaining activity at 153 µM worked out at 101% and the remaining activity at 1000 µM is 101%. Further, the “inhibitor of Renilla luciferase” value in assay [2] is given as “suitable inhibitors of Renilla luciferase”. In addition, in assay [2] (inhibitor 23 μM), the “Selectivity Value” is on record as 1.02 and the remaining activity at 23 µM was 99%. In addition, in assay [2] (inhibitor 153 μM), the “Selectivity Value” came to 1.05 and the remaining activity at 153 µM is 96%. In addition, in assay [2] (inhibitor 1000 μM), the “Selectivity Value” worked out at 1.07 and the remaining activity at 1000 µM was determined as 94.6%.

`COc1ccc(CCNC(=O)/C=C/c2ccc3[nH]cc(CCN(C)C)c3c2)cc1` [Compound 3062, (E)-3-(3-(2-(dimethylamino)ethyl)-1H-indol-5-yl)-N-(4-methoxyphenethyl)acrylamide]: in assay [1], the remaining activity at 10 µM worked out at 100%, the remaining activity at 100 µM came to 98% and the remaining activity at 1000 µM stood at 99%. The “inhibitor of Renilla luciferase” value in assay [2] is on record as “excellent inhibitors of Renilla luciferase”. In assay [2] (inhibitor 10 μM), the “Selectivity Value” worked out at 1.4 and the remaining activity at 10 µM came to 74%. In assay [2] (inhibitor 100 μM), the “Selectivity Value” was 3.3 and the remaining activity at 100 µM worked out at 30%. Besides, in assay [2] (inhibitor 1000 μM), the “Selectivity Value” was 19.4 and the remaining activity at 1000 µM amounted to 5.1%.

With `COc1ccc(CNC(=O)/C=C/c2ccc3[nH]cc(CCCN(C)C)c3c2)cc1` [Compound 3071, (E)-3-(3-(3-(dimethylamino)propyl)-1H-indol-5-yl)-N-(4-methoxybenzyl)acrylamide], the values for the remaining activity at 10 µM in assay [1] and in assay [2] (inhibitor 10 μM) were 101% and 57%, respectively. Further, the remaining activity at 100 µM is 101% in assay [1] and 15% in assay [2] (inhibitor 100 μM). Also, the remaining activity at 1000 µM in assay [1] is 100%; in assay [2] (inhibitor 1000 μM), 2.5%. In addition, the “inhibitor of Renilla luciferase” value in assay [2] is on record as “excellent inhibitors of Renilla luciferase”. In addition, the “Selectivity Value” in assay [2] (inhibitor 10 μM) was 1.8; in assay [2] (inhibitor 100 μM), 6.7; in assay [2] (inhibitor 1000 μM), 40.

On to `COc1ccc(COC(=O)/C=C/c2ccc3[nH]cc(CCN(C)C)c3c2)cc1` [Compound 3045, (E)-4-methoxybenzyl 3-(3-(2-(dimethylamino)ethyl)-1H-indol-5-yl)acrylate], for which the remaining activity at 23 µM worked out at 100% in assay [1] and 97% in assay [2] (inhibitor 23 μM). The remaining activity at 153 µM was 100% in assay [1] and 98% in assay [2] (inhibitor 153 μM). The remaining activity at 1000 µM in assay [1] was determined as 98%; in assay [2] (inhibitor 1000 μM) it was 74.7%. In assay [2], the “inhibitor of Renilla luciferase” value is given as “suitable inhibitors of Renilla luciferase”. In addition, the “Selectivity Value” in assay [2] (inhibitor 23 μM) stood at 1.0; in assay [2] (inhibitor 153 μM), 1.0; in assay [2] (inhibitor 1000 μM), 1.3.

As to `COc1ccc(CNC(=O)/C(C#N)=C/c2ccc3[nH]cc(CCN(C)C)c3c2)cc1` [Compound 3044, (E)-2-cyano-3-(3-(2-(dimethylamino)ethyl)-1H-indol-5-yl)-N-(4-methoxybenzyl)acrylamide], the remaining activity at 10 µM stood at 99% in assay [1] and 85% in assay [2] (inhibitor 10 μM). Also, the figures for the remaining activity at 100 µM in assay [1] and in assay [2] (inhibitor 100 μM) were 100% and 36%, respectively. In addition, the values for the remaining activity at 1000 µM in assay [1] and in assay [2] (inhibitor 1000 μM) were 132% and 7.6%, respectively. Further, the “inhibitor of Renilla luciferase” value in assay [2] was “inhibitors of Renilla luciferase”. The “Selectivity Value” in assay [2] (inhibitor 10 μM) amounted to 1.2; in assay [2] (inhibitor 100 μM), 2.8; in assay [2] (inhibitor 1000 μM) it was 18.9.

For the molecule `CN(C)CCc1c[nH]c2ccc(/C=C/C(=O)N3CCOCC3)cc12` [Compound 3064, (E)-3-(3-(2-(dimethylamino)ethyl)-1H-indol-5-yl)-1-morpholinoprop-2-en-1-one], the results for the remaining activity at 10 µM in assay [1] and in assay [2] (inhibitor 10 μM) were 102% and 81%, respectively. Also, the remaining activity at 100 µM in assay [1] stood at 101%; in assay [2] (inhibitor 100 μM), 35%. Also, the remaining activity at 1000 µM in assay [1] is 103%; in assay [2] (inhibitor 1000 μM), 9%. In assay [2], the “inhibitor of Renilla luciferase” value is recorded as “excellent inhibitors of Renilla luciferase”. The “Selectivity Value” in assay [2] (inhibitor 10 μM) is given as 1.3; in assay [2] (inhibitor 100 μM) it was 2.9; in assay [2] (inhibitor 1000 μM), 11.4.

For `COc1cc(OC)c(CNC(=O)/C=C/c2ccc3[nH]cc(CCN(C)C)c3c2)c(OC)c1` [Compound 3073, (E)-3-(3-(2-(dimethylamino)ethyl)-1H-indol-5-yl)-N-(2,4,6-trimethoxybenzyl)acrylamide], the remaining activity at 10 µM in assay [1] worked out at 101%; in assay [2] (inhibitor 10 μM), 102%. Also, the remaining activity at 100 µM in assay [1] is 100%; in assay [2] (inhibitor 100 μM), 87%. Further, the remaining activity at 1000 µM is 101% in assay [1] and 34.5% in assay [2] (inhibitor 1000 μM). Moreover, in assay [2], the “inhibitor of Renilla luciferase” value is “inhibitors of Renilla luciferase”. Further, the “Selectivity Value” in assay [2] (inhibitor 10 μM) is reported as 0.99; in assay [2] (inhibitor 100 μM) it was 1.5; in assay [2] (inhibitor 1000 μM), 2.9.

On to `CCCCCCNC(=O)/C=C/c1ccc2[nH]cc(CCN(C)C)c2c1` [Compound 3050, (E)-3-(3-(2-(dimethylamino)ethyl)-1H-indol-5-yl)-N-hexylacrylamide], for which, in assay [1], the remaining activity at 23 µM was 102%, the remaining activity at 153 µM amounted to 102% and the remaining activity at 1000 µM came to 102%. In addition, in assay [2], the “inhibitor of Renilla luciferase” value is “suitable inhibitors of Renilla luciferase”. In assay [2] (inhibitor 23 μM), the “Selectivity Value” turned out to be 1.1 and the remaining activity at 23 µM is 93%. In addition, in assay [2] (inhibitor 153 μM), the “Selectivity Value” amounted to 1.0 and the remaining activity at 153 µM was 99%. In addition, in assay [2] (inhibitor 1000 μM), the “Selectivity Value” came out at 1.9 and the remaining activity at 1000 µM turned out to be 55%.

Take `COc1ccc(CNC(=O)/C=C/c2ccc3c(c2)c(CCN(C)C)cn3C)cc1` [Compound 3049, (E)-3-(3-(2-(dimethylamino)ethyl)-1-methyl-1H-indol-5-yl)-N-(4-methoxybenzyl)acrylamide]: the “inhibitor of Renilla luciferase” value in assay [2] is recorded as “excellent inhibitors of Renilla luciferase”.

Consider `CN(C)CCc1c[nH]c2ccc(/C=C/C(=O)NCc3ccc(N(C)C)cc3)cc12` [Compound 3043, (E)-N-(4-(dimethylamino)benzyl)-3-(3-(2-(dimethylamino)ethyl)-1H-indol-5-yl)acrylamide], for which, in assay [2], the “inhibitor of Renilla luciferase” value is on record as “excellent inhibitors of Renilla luciferase”.
